Here are results for 10 compounds from ChEMBL document CHEMBL1201862, “PubChem BioAssay data set” (2004).

What all share (assay): NCI anticancer screen, dose series, 48 h
Assay [1] has as its system SF-268.
Assay [2] concerns NCI-H23.
For assay [3], the system named is HCT-116.
Assay [4] has as its system MDA-MB-435.
In assay [5] the test system is MDA-N.
The subject of assay [6] is HL-60.
Assay [7] has as its system CAKI-1.
For assay [8], the system named is RXF 393.
Assay [9] relates to UACC-257.
Assay [10] relates to SK-MEL-28.
For assay [11], the system named is OVCAR-8.
Assay [12] concerns HOP-62.
Assay [13] relates to SNB-75.
For assay [14], the system named is NCI-H522.
Assay [15] relates to SF-295.
For assay [16], the system named is HCC 2998.
The subject of assay [17] is DU-145.
Assay [18] concerns SR.
The subject of assay [19] is PC-3.
In assay [20] the test system is Malme-3M.

SMILES strings stand for the structures.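 Cells were grown in 96-well plates and exposed to each compound for 48 hours at five concentrations; endpoints were interpolated linearly between bracketing concentrations, or set to the highest concentration if not reached. GI50 is the concentration that inhibits growth by half.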 Calls of active or inactive are those of the source. Cut-off read from the data, not from the text of the source: active = GI50 up to about 1.1 µM and inactive = higher. Some results are limits rather than exact numbers.

`O=c1[nH]c(=O)n(C2CC(O)C(COP(=O)(O)OC3CC(n4cc(F)c(=O)[nH]c4=O)OC3COP(=O)(O)OC3CC(n4cc(F)c(=O)[nH]c4=O)OC3COP(=O)(O)OC3CC(n4cc(F)c(=O)[nH]c4=O)OC3COP(=O)(O)OC3CC(n4cc(F)c(=O)[nH]c4=O)OC3COP(=O)(O)OC3CC(n4cc(F)c(=O)[nH]c4=O)OC3COP(=O)(O)OC3CC(n4cc(F)c(=O)[nH]c4=O)OC3COP(=O)(O)OC3CC(n4cc(F)c(=O)[nH]c4=O)OC3COP(=O)(O)OC3CC(n4cc(F)c(=O)[nH]c4=O)OC3COP(=O)(O)OC3CC(n4cc(F)c(=O)[nH]c4=O)OC3CO)O2)cc1F` (centres undefined): the GI50 in assay [1] is < 0.005 µM (active); in [2], 0.0502 µM (active); in assay [3], 0.0109 µM (active); in assay [4] it was 0.422 µM (active); in assay [5] it was 0.0685 µM (active); in assay [6], 0.0126 µM (active). Besides, the GI50 is < 0.005 µM (active) in assay [7]; 0.217 µM (active) in assay [8]; 0.578 µM (active) in [9]; 0.286 µM (active) in [10]; < 0.005 µM (active) in [11]; < 0.005 µM (active) in assay [12]. For the same compound, the GI50 in [13] was 0.353 µM (active); in [14] it was 0.015 µM (active); in assay [15], < 0.005 µM (active); in assay [16], 0.0234 µM (active); in assay [17], < 0.005 µM (active); in assay [18] it was < 0.005 µM (active). In addition, in assay [19], the GI50 was 0.0767 µM (active).

Consider `O=C(O)c1c(-c2ccccc2)c(=O)[nH]c2ccccc12`, for which the GI50 in assay [1], in [20], in assay [2], in assay [3], in assay [4] and in assay [5] was > 100 µM (inactive) throughout. The GI50 in [6], in [8], in [9], in [10], in assay [11] and in assay [12] was > 100 µM (inactive) in each case. The GI50 in assay [13], in assay [14], in [15], in [16], in assay [17] and in assay [18] was > 100 µM (inactive) each time. The GI50 in [19] is > 100 µM (inactive).

Regarding `COC1=CC(=O)C2=C(C1=O)[C@H]1CC[C@]3(C)C(=O)CC[C@H]3[C@@H]1CC2`, the GI50 in assay [1] is 21.5 µM (inactive); in assay [2], 27.1 µM (inactive); in [3] it was 18.5 µM (inactive); in assay [4], 19.8 µM (inactive); in [5] it was 25.2 µM (inactive); in assay [6], 2.38 µM (inactive). Also, the GI50 in assay [7] is 25.8 µM (inactive); in assay [8] it was 28.1 µM (inactive); in assay [9], 22.9 µM (inactive); in assay [10], 78 µM (inactive); in assay [11], 18.1 µM (inactive); in assay [12] it was 59.8 µM (inactive). The GI50 is > 100 µM (inactive) in assay [13]; 24.2 µM (inactive) in [14]; 66.7 µM (inactive) in assay [15]; 54.1 µM (inactive) in assay [16]; 25.3 µM (inactive) in assay [17]; 34.9 µM (inactive) in assay [18]. Also, the GI50 in [19] is 28.5 µM (inactive).

Take `O=C(O)/C=C/C=C/c1ccc2c(c1)OCO2` [PIPERIC ACID]: the GI50 in assay [1], in assay [20], in assay [2], in assay [3], in assay [4] and in assay [5] was > 100 µM (inactive) throughout. Moreover, the GI50 in assay [6], in [7], in [8], in [9], in assay [10] and in [11] was > 100 µM (inactive) each time. The GI50 in [12] was > 100 µM (inactive); in assay [13] it was 36.6 µM (inactive); in assay [14] it was > 100 µM (inactive); in [15], > 100 µM (inactive); in [17], > 100 µM (inactive); in [18], > 100 µM (inactive). In [19], the GI50 is > 100 µM (inactive).

Turning to `C=C1C[C@@H]2O[C@H]3[C@H]4[C@@H](C[C@@H](C)[C@@H](OC(C)=O)[C@H]42)[C@@H](C)CO[C@@]3(C)[C@H](OC(C)=O)C[C@H]1O`, the GI50 was > 100 µM (inactive) in assay [1]; > 100 µM (inactive) in assay [20]; > 100 µM (inactive) in assay [2]; > 100 µM (inactive) in assay [3]; 33 µM (inactive) in assay [4]; 40.5 µM (inactive) in assay [5]. For the same compound, the GI50 is 16.9 µM (inactive) in [6]; > 100 µM (inactive) in assay [7]; 38.7 µM (inactive) in assay [8]; > 100 µM (inactive) in assay [9]; > 100 µM (inactive) in [10]; 82.6 µM (inactive) in [11]. In addition, the GI50 in assay [13] was 84.3 µM (inactive); in [14] it was 48 µM (inactive); in assay [15] it was > 100 µM (inactive); in assay [16], > 100 µM (inactive); in [17] it was > 100 µM (inactive); in assay [18] it was 43 µM (inactive). The GI50 in assay [19] was 95.9 µM (inactive).

In the case of `COc1ccccc1C(=O)NO`, the GI50 in [1], in [2], in [3], in assay [4], in [5] and in assay [6] was > 100 µM (inactive) each time. In addition, the GI50 in [7], in assay [8], in assay [9], in assay [10], in assay [11] and in assay [12] was > 100 µM (inactive) in each case. Further, the GI50 in [13] was > 100 µM (inactive); in assay [14] it was 49.1 µM (inactive); in [15], > 100 µM (inactive); in assay [16], > 100 µM (inactive); in assay [17], > 100 µM (inactive); in assay [18], > 100 µM (inactive). In assay [19], the GI50 was > 100 µM (inactive).

As for `NC(=O)NC(CC(=O)O)C(=O)O` (centres undefined), the GI50 in assay [1], in assay [20], in assay [2], in assay [3], in assay [4] and in assay [5] was > 100 µM (inactive) each time. The GI50 in assay [7] was > 100 µM (inactive); in assay [8], > 100 µM (inactive); in [9] it was 93.3 µM (inactive); in [10], > 100 µM (inactive); in assay [11], > 100 µM (inactive); in assay [12], > 100 µM (inactive). The GI50 in [13], in assay [14], in assay [15], in assay [16], in assay [17] and in assay [18] was > 100 µM (inactive) throughout. In addition, in assay [19], the GI50 was > 100 µM (inactive).

In the case of `O=C1Nc2ccccc2/C1=N\c1cccc2ncccc12`, the GI50 in assay [1] was 67.1 µM (inactive); in assay [20], > 100 µM (inactive); in assay [2], 32.2 µM (inactive); in assay [3], 58.7 µM (inactive); in assay [4] it was 20 µM (inactive); in assay [5], 34.5 µM (inactive). Besides, the GI50 in [7] is > 100 µM (inactive); in assay [8], > 100 µM (inactive); in assay [9] it was 41 µM (inactive); in assay [10], > 100 µM (inactive); in [11], > 100 µM (inactive); in assay [12], 46.5 µM (inactive). Further, the GI50 in assay [13] is 94.8 µM (inactive); in [14], 28.1 µM (inactive); in assay [15], 53.3 µM (inactive); in assay [17], > 100 µM (inactive); in assay [18], 31.6 µM (inactive); in assay [19], > 100 µM (inactive).

Take `CC(C)(N)CO[C@H]1C[C@H]2CC[C@@]1(C)C2(C)C`: the GI50 in [1] was 44.9 µM (inactive); in [20], 18.2 µM (inactive); in [2], 23.7 µM (inactive); in assay [3] it was 15.9 µM (inactive); in assay [4], 16.3 µM (inactive); in assay [5], 15.5 µM (inactive). The GI50 in assay [7] is 20.2 µM (inactive); in [8], 12.9 µM (inactive); in [9], 17.8 µM (inactive); in assay [10], 12.3 µM (inactive); in assay [11], 20.6 µM (inactive); in [12], 20 µM (inactive). Further, the GI50 in [13] was 14.2 µM (inactive); in assay [14], 18.7 µM (inactive); in assay [15] it was 19.9 µM (inactive); in [16], 2.11 µM (inactive); in assay [17] it was 25.9 µM (inactive); in assay [18], 11.9 µM (inactive). In assay [19], the GI50 was 27.1 µM (inactive).

Regarding `O=[N+]([O-])c1ccc2c3c1[C@H]1O[C@H]1c1cccc(c1-3)[C@@H]1O[C@H]21`, the GI50 was 1.98 µM (inactive) in assay [1]; 2.4 µM (inactive) in [20]; 1.81 µM (inactive) in [2]; 1.81 µM (inactive) in [3]; 1.85 µM (inactive) in assay [4]; 2.17 µM (inactive) in assay [5]. For the same compound, the GI50 in [6] was 3.15 µM (inactive); in assay [7], 1.99 µM (inactive); in assay [8], 1.78 µM (inactive); in assay [9], 1.82 µM (inactive); in assay [10], 2.28 µM (inactive); in [11] it was 0.91 µM (active). The GI50 was 2.9 µM (inactive) in [12]; 1.97 µM (inactive) in assay [13]; 1.67 µM (inactive) in assay [14]; 3.5 µM (inactive) in [15]; 2.33 µM (inactive) in assay [17]; 2.72 µM (inactive) in [18]. Moreover, the GI50 in assay [19] is 2.3 µM (inactive).
